The species entered for the assay is Rattus norvegicus. Nature of the assay: Compound was evaluated for percent inhibition of antiarrhythmic activity catalyzed by cytochrome P-450 UT-H in liver microsomes of rats. Type of assay: functional. Particulars: dose or concentration not given here.

Take `C1CCN2C[C@@H]3C[C@@H](CN4CCCC[C@@H]34)[C@H]2C1`: the inhibition (as a rule, the drop in the measured response relative to a control, in per cent) was above 95%.

For the origin of these results see ChEMBL document CHEMBL1122717, “Oxidation of sparteines by cytochrome P-450: evidence against the formation of N-oxides” (J Med Chem, 1984).
